Legend:
[1] = target: Tyrosine-protein kinase Lck (Homo sapiens, UniProt P06239); assay: Binding affinity to human LCK by KINOMEscan assay
[2] = target: Serine/threonine-protein kinase SIK1 (Homo sapiens, UniProt P57059); assay: Inhibition of human SIK1 (02 to 131) assessed as luminescence signal using AMARAtide/ATP as substrate measured after 120 mins by microplate reader
[3] = target: Serine/threonine-protein kinase SIK2 (Homo sapiens, UniProt Q9H0K1); assay: Inhibition of recombinant full length human SIK2 assessed as luminescence signal using AMARAtide/ATP as substrate measured after 120 mins by microplate reader
Sequence of Serine/threonine-protein kinase SIK2 (Q9H0K1 whole entry): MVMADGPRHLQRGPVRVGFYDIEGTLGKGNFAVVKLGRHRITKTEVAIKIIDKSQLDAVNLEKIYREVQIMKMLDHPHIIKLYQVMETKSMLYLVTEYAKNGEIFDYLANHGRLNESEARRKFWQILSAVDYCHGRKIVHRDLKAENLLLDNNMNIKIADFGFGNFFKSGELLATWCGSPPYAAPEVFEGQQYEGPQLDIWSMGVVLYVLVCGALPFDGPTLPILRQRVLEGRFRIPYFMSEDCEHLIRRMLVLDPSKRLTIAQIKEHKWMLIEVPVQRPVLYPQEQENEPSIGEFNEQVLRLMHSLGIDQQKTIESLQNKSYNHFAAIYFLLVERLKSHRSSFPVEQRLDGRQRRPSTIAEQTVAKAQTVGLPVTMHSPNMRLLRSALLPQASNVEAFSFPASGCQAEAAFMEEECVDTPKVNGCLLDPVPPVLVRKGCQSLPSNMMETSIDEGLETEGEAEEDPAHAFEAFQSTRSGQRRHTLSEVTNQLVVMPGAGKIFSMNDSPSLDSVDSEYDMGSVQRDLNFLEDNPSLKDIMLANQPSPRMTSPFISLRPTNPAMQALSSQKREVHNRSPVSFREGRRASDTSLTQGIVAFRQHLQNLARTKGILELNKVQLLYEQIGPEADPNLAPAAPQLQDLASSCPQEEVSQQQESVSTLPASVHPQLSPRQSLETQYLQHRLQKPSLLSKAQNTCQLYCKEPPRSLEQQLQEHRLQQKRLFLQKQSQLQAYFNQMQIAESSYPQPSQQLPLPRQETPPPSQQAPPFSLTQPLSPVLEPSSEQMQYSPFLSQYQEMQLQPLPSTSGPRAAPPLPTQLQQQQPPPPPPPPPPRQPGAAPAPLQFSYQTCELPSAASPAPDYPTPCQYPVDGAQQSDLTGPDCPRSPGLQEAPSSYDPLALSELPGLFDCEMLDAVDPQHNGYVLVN

[4] = target: Serine/threonine-protein kinase SIK3 (Homo sapiens, UniProt Q9Y2K2); assay: Inhibition of recombinant human SIK3 assessed as luminescence signal using AMARAtide/ATP as substrate measured after 120 mins by microplate reader
Sequence of Serine/threonine-protein kinase SIK3 (Q9Y2K2 whole entry): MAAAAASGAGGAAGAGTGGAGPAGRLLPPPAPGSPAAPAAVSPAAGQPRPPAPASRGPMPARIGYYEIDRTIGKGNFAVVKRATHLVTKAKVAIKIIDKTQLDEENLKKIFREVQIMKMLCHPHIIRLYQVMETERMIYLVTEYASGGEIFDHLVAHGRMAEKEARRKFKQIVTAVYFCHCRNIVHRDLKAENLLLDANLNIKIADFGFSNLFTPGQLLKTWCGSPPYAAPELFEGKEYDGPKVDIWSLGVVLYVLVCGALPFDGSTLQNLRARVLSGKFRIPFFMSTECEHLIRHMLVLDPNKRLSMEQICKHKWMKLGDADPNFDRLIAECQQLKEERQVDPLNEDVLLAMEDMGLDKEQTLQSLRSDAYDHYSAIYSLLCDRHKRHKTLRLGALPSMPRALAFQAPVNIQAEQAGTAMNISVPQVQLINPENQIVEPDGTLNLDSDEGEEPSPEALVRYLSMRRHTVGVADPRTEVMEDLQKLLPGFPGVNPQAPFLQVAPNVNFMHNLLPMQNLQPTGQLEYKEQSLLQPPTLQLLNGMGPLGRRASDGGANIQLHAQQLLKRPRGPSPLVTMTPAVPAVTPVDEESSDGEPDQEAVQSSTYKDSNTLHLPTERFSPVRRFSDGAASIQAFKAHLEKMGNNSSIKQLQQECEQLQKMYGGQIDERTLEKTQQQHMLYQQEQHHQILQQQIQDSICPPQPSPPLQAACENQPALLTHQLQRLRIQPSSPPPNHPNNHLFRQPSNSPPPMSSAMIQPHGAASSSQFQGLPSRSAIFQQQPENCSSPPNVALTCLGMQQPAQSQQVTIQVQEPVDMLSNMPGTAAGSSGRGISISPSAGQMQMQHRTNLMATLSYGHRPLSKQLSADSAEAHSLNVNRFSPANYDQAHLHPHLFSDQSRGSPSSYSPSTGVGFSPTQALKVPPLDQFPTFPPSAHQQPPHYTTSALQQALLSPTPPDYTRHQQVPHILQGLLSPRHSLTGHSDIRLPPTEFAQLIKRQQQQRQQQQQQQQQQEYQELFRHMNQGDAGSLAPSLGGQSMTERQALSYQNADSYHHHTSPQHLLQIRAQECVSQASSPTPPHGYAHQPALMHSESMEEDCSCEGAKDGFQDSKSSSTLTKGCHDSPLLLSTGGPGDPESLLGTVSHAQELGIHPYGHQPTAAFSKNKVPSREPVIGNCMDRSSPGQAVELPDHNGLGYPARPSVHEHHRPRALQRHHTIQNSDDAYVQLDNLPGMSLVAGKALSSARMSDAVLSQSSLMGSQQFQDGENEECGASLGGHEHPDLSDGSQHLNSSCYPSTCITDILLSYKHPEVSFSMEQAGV

[5] = Binding affinity to human ABL by KINOMEscan assay

Sequence of Serine/threonine-protein kinase SIK1 (P57059 whole entry): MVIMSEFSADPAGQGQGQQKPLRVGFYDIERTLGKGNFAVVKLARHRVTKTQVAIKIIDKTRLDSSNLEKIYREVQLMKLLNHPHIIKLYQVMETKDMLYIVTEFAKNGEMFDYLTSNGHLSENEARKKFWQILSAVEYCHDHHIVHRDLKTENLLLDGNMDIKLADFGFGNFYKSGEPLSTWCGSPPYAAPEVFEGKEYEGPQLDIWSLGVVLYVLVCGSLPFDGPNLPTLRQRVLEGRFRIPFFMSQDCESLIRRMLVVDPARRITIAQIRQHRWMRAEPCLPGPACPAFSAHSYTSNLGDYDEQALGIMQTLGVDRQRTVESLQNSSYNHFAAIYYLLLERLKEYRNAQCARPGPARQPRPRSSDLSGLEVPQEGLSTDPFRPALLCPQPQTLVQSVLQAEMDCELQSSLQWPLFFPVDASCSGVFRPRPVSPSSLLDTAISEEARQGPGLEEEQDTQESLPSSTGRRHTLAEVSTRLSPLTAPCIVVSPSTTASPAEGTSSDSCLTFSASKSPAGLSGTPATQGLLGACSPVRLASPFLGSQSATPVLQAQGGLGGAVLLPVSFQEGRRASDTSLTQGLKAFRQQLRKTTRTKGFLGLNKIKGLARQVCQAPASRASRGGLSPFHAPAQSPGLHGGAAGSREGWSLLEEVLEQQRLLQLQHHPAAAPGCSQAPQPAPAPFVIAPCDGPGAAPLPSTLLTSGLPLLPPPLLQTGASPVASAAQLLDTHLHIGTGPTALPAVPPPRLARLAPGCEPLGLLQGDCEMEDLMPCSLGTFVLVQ
Sequence of Tyrosine-protein kinase Lck (P06239 whole entry): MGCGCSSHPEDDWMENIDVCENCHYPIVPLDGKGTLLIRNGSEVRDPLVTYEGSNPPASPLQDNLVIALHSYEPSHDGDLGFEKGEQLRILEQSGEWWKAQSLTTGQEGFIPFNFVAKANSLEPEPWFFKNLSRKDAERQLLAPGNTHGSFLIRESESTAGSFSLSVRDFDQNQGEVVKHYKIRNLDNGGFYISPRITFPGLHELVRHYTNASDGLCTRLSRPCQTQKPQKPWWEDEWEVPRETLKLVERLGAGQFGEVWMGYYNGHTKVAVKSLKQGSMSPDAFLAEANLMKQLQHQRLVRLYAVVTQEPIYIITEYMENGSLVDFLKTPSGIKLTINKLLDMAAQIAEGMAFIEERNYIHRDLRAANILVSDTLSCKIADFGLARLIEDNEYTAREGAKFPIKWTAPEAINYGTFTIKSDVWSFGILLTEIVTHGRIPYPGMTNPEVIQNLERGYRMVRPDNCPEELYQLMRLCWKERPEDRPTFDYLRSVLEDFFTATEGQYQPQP

With `Cc1cc(-c2cc(O)ccc2Cl)cc2nnc(Nc3ccc(OCCN4CCCC4)cc3)nc12` the IC50 [1] was 2.7 nM.
For `COc1cc(-c2cc(-c3cnn(C4CCOCC4)c3)cnc2N)cc2c1C(=O)N(CC#N)CC2`, the IC50 [2] was 118 nM, the IC50 [3] was 4.9 nM and the IC50 [4] was 5.7 nM.
`COc1cc(-c2cc(-c3cnn(S(C)(=O)=O)c3)cnc2N)cc2c1C(=O)N(CC(F)(F)F)CC2` gave an IC50 [3] of 39 nM.
With `CNC(=O)c1cc(Oc2ccc(NC(=O)Nc3cc(C(C)(C)C)nn3-c3ccc4ncccc4c3)c(F)c2)ccn1` [REBASTINIB] the IC50 [5] was 26.8 nM.

— ChEMBL document CHEMBL6109120, “Discovery of Novel SIK2/3 Inhibitors for the Potential Treatment of MEF2C+ Acute Myeloid Leukemia (AML)” (J Med Chem, 2025)
